Test results as given in US10106542B2, “Substituted 6,7-dihydropyrazolo[1,5-a]pyrazines as negative allosteric modulators of mGluR2 receptors” (Janssen Pharmaceutica NV, priority 2013, dated 2018).

Key:
[1] = target: T1, human mGlu2 receptor (Homo sapiens, UniProt Q14416); test: [35S]GTPγS binding assay (mGluR2 negative allosteric modulation); format: biochemical; conditions: for IC50: read-out: GTPγS - hmGluR2 anGT pIC50 (converted); for Emax: relative maximal effect: maximal % inhibition relative to the control glutamate response, read-out: GTPγS - hmGluR2 anGT Emax
T1 construct: expressed in transfected cells; host or cells: CHO cells (membrane preparation)
Outline: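 Negative allosteric modulation read as [35S]GTPγS (0.1 nM) incorporation over 30 min at 30 °C, expressed as % of the response to an EC80-equivalent glutamate concentration. Assay used 7 μg human mGlu2 CHO membrane protein in HEPES pH 7.4 buffer with NaCl, MgCl2, GDP and saponin; bound label collected by filtration.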

[2] = tested on: Wiga rats; test: Reserpine interaction test in rats; format: in vivo, rat; conditions: for ED50: Rattus norvegicus, po, Time 60, reserpine 10 mg/kg SC, Wiga rats, read-out: ED50, reversal of reserpine-induced ptosis
Procedure: 4) Reserpine Interaction Test in Rats
It was investigated to what extent the mydriatic action of test compounds was sufficient to counteract the miosis induced by the monoamines-depleting agent reserpine (10 mg/kg; SC) in Wiga rats.
The effects are illustrated in FIG. 3. […] The reference mGlu2 NAMs RO-4995819 (40 mg/kg, p.o.), RO-4491533 (40 mg/kg, p.o.; 10 mg/kg, s.c.) and [CAS 579473-69-1]

[3] = tested on: rats; test: Reversal of the effect of the mGluR2 PAM JNJ-42153605 on scopolamine-induced hyperlocomotion; format: in vivo; conditions: Rattus norvegicus, 1 h, Route PO, test compound 60 min before recording, criterion total distance >1500 cm
Procedure: 2) Reversal of the Effect of the mGluR2 PAM JNJ-42153605 on Scopolamine-Induced Hyperlocomotion Apparatus
Motor activity was measured in microprocessor-based motor activity arenas (closed gray PVC cylinders with a height of 39 cm and a diameter of 31 cm). Each arena was placed on an infrared LED (8×8 LEDs) lit box (white PVC squared box; 40×40 cm^2; height 12.5 cm. An infrared-sensitive tube camera and a white light source were mounted to the ceiling above the observation chamber to track the animal. The total distance traveled (cm) was recorded and analyzed using the Noldus Ethovision XT Video Tracking System (Version 7.0.418; Noldus, Wageningen, The Netherlands). The intensity of the light within the activity cages (measured in the centre at the level of the floor) ranged between 4 and 8 LUX.
The rats were pretreated with test compound or vehicle at 60 min before the start of the activity recordings and placed into individual cages. The rats were challenged with JNJ-42153605 (3-(cyclopropylmethyl)-7-(4-phenylpiperidin-1-yl)-8-(trifluoromethyl)[1,2,4]triazolo[4,3-a]pyridine; WO2010/130424; Cid et al. J. Med. Chem. 2012, 55, 8770-8789) (20 mg/kg, i.v.) 30 min before the start of the activity recording combined with scopolamine (0.16 mg/kg, i.v.) just before the start of the activity measurements Immediately after the injection of scopolamine, the rats were placed into the activity monitors and total distance travelled over the first 30 min was measured.
Animals receiving the combination of JNJ-42153605 and scopolamine (n=433) almost always travelled a distance of less than 1500 cm (<1500 cm) (only 2.5% of the control rats travelled a distance of more than 1500 cm (>1500 cm)). On the other hand, animals challenged with scopolamine alone (n=215) always travelled a total distance of more than 1500 cm (>1500 cm) and almost always (in 95.8% of the rats) a distance of more than 4400 cm (>4400 cm). […] For reversal of the inhibitory effect of JNJ-42153605 on the scopolamine-induced hyperlocomotion, two all-or-none criteria were adopted: (1) reversal: total distance >1500 cm; (2) normalization: total distance >4400 cm.

[4] = tested on: Male Wiga Wistar rats; test: Reversal of LY-404039-induced decrease of palpebral opening in apomorphine-challenged rats; format: in vivo; conditions: Rattus norvegicus, reversal of LY-404039-induced decrease of palpebral opening (cumulative score >26) in apomorphine challenged rats
Procedure: 6) Reversal of LY-404039-Induced Decrease of Palpebral Opening in Apomorphine-Challenged Rats.
Male Wiga Wistar rats (Crl:WI; Charles River Germany; 220±40 g) were housed under standard laboratory conditions (21±2° C.; 50-65% relative humidity; light-dark cycle set at 12 h; lights on at 6.00 h) and fasted overnight prior to the start of the experiments (tap water remained available ad libitum). During the test period, they were housed in individual cages. The local Ethical Committee approved all studies in compliance with the Declaration of Helsinki. Palpebral opening was scored every 5 min over the first hour after injection of apomorphine (1.0 mg/kg, i.v.) in animals either pretreated or not pretreated with LY-404039 (2.5 mg/kg, s.c.) at 1 h prior to the apomorphine injection. The animals were also pretreated with test compound or solvent at a predefined interval before apomorphine challenge. The score system was: (5) exophthalmos, (4) wide open, (3) open for three-quarters, (2) half open, (1) open for one-quarter, (0) closed. The scores for palpebral opening were cumulated over the 60-min observation period. A cumulative palpebral opening score >26 was selected for drug-induced reversal of the LY-404039-induced decrease of palpebral opening (occurrence in 3.2% of control animals pretreated with LY-404039 (n=154) versus in 99.5% of control rats not pretreated with LY-404039 (n=6335)).
In animals receiving apomorphine alone the median palpebral opening is 43 whereas in animals receiving apomorphine and LY-404039, the median palpebral opening is 17.

[5] = membranes from CHO cells transfected with human mGlu2 receptor, glutamate 60 μM, pIC50 = −log IC50 (M)

T1 sequence (Q14416 19-872): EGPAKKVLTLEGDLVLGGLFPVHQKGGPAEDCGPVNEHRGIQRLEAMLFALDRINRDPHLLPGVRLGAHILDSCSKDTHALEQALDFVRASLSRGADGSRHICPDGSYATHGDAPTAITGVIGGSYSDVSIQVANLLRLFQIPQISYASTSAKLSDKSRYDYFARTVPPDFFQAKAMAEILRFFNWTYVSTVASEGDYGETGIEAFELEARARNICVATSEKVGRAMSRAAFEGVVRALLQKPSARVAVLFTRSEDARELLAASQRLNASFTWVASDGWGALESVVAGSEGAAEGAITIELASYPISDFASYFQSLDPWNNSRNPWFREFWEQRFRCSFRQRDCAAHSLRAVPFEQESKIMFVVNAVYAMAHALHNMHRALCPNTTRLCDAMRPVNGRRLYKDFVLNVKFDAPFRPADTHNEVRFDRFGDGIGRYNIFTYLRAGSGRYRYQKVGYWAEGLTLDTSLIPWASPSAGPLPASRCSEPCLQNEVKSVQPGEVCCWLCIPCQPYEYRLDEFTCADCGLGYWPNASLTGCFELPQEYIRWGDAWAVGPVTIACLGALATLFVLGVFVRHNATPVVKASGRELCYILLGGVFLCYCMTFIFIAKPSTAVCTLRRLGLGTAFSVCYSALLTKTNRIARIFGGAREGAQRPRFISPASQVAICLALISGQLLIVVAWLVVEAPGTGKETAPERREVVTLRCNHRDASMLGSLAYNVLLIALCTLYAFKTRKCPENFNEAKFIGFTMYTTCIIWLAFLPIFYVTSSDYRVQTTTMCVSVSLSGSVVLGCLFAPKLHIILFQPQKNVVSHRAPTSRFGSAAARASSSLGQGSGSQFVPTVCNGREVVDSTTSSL

IC50 [1, 5] [M]	Emax [1] [%]	melting point	SMILES	ED50 [2] [mg/kg]	ED50 [3] [mg/kg]	also measured
5.13e-07	104		Cc1cc(-c2cnn3c2C(=O)N(c2cccc(OC(C)C)c2)C[C@@H]3C)ccn1 [compound 79]	5		
6.31e-07	101		Cc1cc(-c2cnn3c2C(=O)N(c2cc(F)cc(F)c2)C[C@@H]3C)ccn1 [compound 82]	5		
5.62e-06	100	149.7 °C	Cc1cc(-c2cnn3c2C(=O)N(c2cccc(C(C)O)c2)C[C@@H]3C)ccn1 (some centres unmarked) [compound 148]	1.99		
6.92e-08	104		COCc1cc(-c2cnn3c2C(=O)N(c2ccc(C(F)(F)F)cc2)C[C@@H]3C)ccn1 [compound 22]	0.13		
			Cc1ccc(N2C[C@H](C)n3ncc(-c4ccnc(C)c4)c3C2=O)cc1 [compound 78]	≥ 10		
5.62e-07	100	> 300 °C	COc1c(C)cc(N2C[C@H](C)n3ncc(-c4ccnc(C)c4)c3C2=O)cc1C [compound 34]	0.8		
1.48e-06	105	137 °C	Cc1cc(-c2cnn3c2C(=O)N(c2ccc(C(F)(F)F)cc2)CC3)ccn1 [compound 40]	0.32		
3.31e-09	104	247 °C	Cc1cc(-c2cnn3c2C(=O)N(c2ccc(S(F)(F)(F)(F)F)cc2)C[C@@H]3C)ccn1 [compound 4]		1.26	
			Nc1ccc(C#Cc2cnn3c(C(F)(F)F)cc(-c4ccc(C(F)(F)F)cc4)nc23)cn1 [RO-4995819, reference compound]			interactions with reserpine (mydriasis, reversal of ptosis, miosis, sedation) ([2]; 40 mg/kg, p.o.): devoid of these interactions with reserpine
5.13e-07	104	231.5 °C	Cc1cc(-c2cnn3c2C(=O)N(c2ccc(C(F)(F)F)cc2)C[C@@H]3C)cc[n+]1[O-] [compound 140, (7S)-7-Methyl-3-(2-methyl-1-oxido-pyridin-1-ium-4-yl)-5-[4-(trifluoromethyl)phenyl]-6,7-dihydropyrazolo[1,5-a]pyrazin-4-one]			ED50 ([4]; Route PO): 1.99 mg/kg
2.75e-08	103	155.1 °C	C[C@H]1CN(c2ccc(C(F)(F)F)cc2)C(=O)c2c(-c3ccnc(C#N)c3)cnn21 [compound 127, 4-[(7S)-7-Methyl-4-oxo-5-[4-(trifluoromethyl)phenyl]-6,7-dihydropyrazolo[1,5-a]pyrazin-3-yl]pyridine-2-carbonitrile]		1.99	
1.78e-09	110	210.61 °C (dec.)	CNc1cc(-c2cnn3c2C(=O)N(c2ccc(C(F)(F)F)c(Cl)c2)C[C@@H]3C)cc(C#N)n1 [compound 95]		> 2.5	
1.05e-06	105		Cc1cc(-c2cnn3c2C(=O)N(c2ccc(Cl)cc2C)C[C@@H]3C)ccn1 [compound 172]			ED50 ([4]; Route SC): > 40 mg/kg
			Cc1cncc(-c2cnn3c2C(=O)N(c2ccc(C(F)(F)F)cc2)C[C@@H]3C)c1 [compound 24]	≥ 10		
			Cc1cc(-c2cccc(C3=Nc4cc(C)c(C(F)(F)F)cc4NC(=O)C3)c2)cc(C)n1 [RO-4491533, reference compound]			interactions with reserpine (mydriasis, reversal of ptosis, miosis, sedation) ([2]; 10 mg/kg, s.c.): devoid of these interactions with reserpine; interactions with reserpine (mydriasis, reversal of ptosis, miosis, sedation) ([2]; 40 mg/kg, p.o.): devoid of these interactions with reserpine
			Cc1cc(-c2cnn3c2C(=O)N(c2ccc(C#N)cc2)C[C@@H]3C)ccn1 [compound 80]	> 2.5		
7.94e-07	104		CCOc1cccc(N2C[C@H](C)n3ncc(-c4ccnc(C)c4)c3C2=O)c1 [compound 83]	5		
	109	144.9 °C	C[C@H]1CN(c2ccc(C(F)(F)F)c(Cl)c2)C(=O)c2c(-c3ccnc(C#N)c3)cnn21 [compound 100]		> 10	GTPγS - hmGluR2 anGT pIC50 [1, 5]: 8.16
6.03e-07	100		COc1ccc(N2C[C@H](C)n3ncc(-c4ccnc(C)c4)c3C2=O)cc1F [compound 35]	> 10		
3.55e-06	95	166.9 °C	COc1ccc(N2C[C@H](C)n3ncc(-c4ccnc(C)c4)c3C2=O)cc1OC [compound 41]	3.15		
8.32e-07	100	128.2 °C	Cc1ccc(-c2cnn3c2C(=O)N(c2ccc(C(F)(F)F)cc2)C[C@@H]3C)cn1 [compound 36]	5		
			Cc1cc(-c2cnn3c2C(=O)N(c2ccc(C(F)(F)F)c(C)c2)C[C@@H]3C)ccn1 [compound 5]		≥ 2.5	ED50 ([4]; Route PO): > 10 mg/kg
8.32e-09	105	119.7 °C	CCOc1nc(N2C[C@H](C)n3ncc(-c4ccnc(C)c4)c3C2=O)ccc1Cl [compound 201]		> 2.5	
5.37e-07	103		CCOc1ccc(N2C[C@H](C)n3ncc(-c4ccnc(C)c4)c3C2=O)cc1.Cl [compound 81, (7S)-5-(4-Ethoxyphenyl)-7-methyl-3-(2-methyl-4-pyridyl)-6,7-dihydropyrazolo[1,5-a]pyrazin-4-one hydrochloride salt]	5		
9.55e-07	103		COc1ccc(N2C[C@H](C)n3ncc(-c4ccnc(C)c4)c3C2=O)cc1 [compound 38]	5		
7.59e-07	105		Cc1cc(-c2cnn3c2C(=O)N(c2ccc(Cl)cc2Cl)C[C@@H]3C)ccn1 [compound 167]			ED50 ([4]; Route PO): > 40 mg/kg
1.05e-08	103	143.6 °C	Cc1cc(-c2cnn3c2C(=O)N(c2ccc(Cl)c(C(F)(F)F)c2)C[C@@H]3C)ccn1 [compound 9]		≥ 2.5	
5.89e-09	105	122.3 °C	CCOc1nc(N2C[C@H](C)n3ncc(-c4ccnc(C)c4)c3C2=O)ccc1C(F)(F)F (single isomer, unassigned) [compound 200]	0.13	3.15	
8.32e-09	106	67.8 °C	CNc1cc(-c2cnn3c2C(=O)N(c2ccc(C(F)(F)F)c(F)c2)C[C@@H]3C)ccn1 [compound 182]		1.99	
